{"source": "ChEMBL document CHEMBL5143671", "about": "“Discovery of (R)-(3-fluoropyrrolidin-1-yl)(6-((5-(trifluoromethyl)pyridin-2-yl)oxy)quinolin-2-yl)methanone (ABBV-318) and analogs as small molecule Nav1.7/ Nav1.8 blockers for the treatment of pain” (Bioorg Med Chem, 2022);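 on logD: distribution coefficient quantified using high-throughput LC-MS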;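 on solubility: determined using a high-throughput solubility method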", "key": {"[1]": {"experiment": "Drug concentration in brain of monoiodoacetate-induced Sprague-Dawley rat model of osteoarthritis at 30 mg/kg, po administered for 5 days and measured after 15 mins", "format": "ADME, organism-based", "conditions": "time 5 day, read-out: Ct"}, "[2]": {"experiment": "Drug concentration in brain of monoiodoacetate-induced Sprague-Dawley rat model of osteoarthritis at 10 mg/kg, po administered for 5 days and measured after 15 mins", "format": "ADME, organism-based", "conditions": "time 5 day, read-out: Ct"}, "[3]": {"experiment": "Drug concentration in brain of monoiodoacetate-induced Sprague-Dawley rat model of osteoarthritis at 3 mg/kg, po administered for 5 days and measured after 15 mins", "format": "ADME, organism-based", "conditions": "time 5 day, read-out: Ct"}, "Rattus norvegicus [4]": {"species_on_record": "Rattus norvegicus", "experiment": "animal or person", "conditions": "Sprague-Dawley"}, "[5]": {"experiment": "Toxicity in rat assessed as phospholipidosis measured after 5 days", "conditions": "120 h, time 5 day"}, "[6]": {"experiment": "Toxicity in rat assessed as phospholipidosis measured after 10 days", "conditions": "240 h, time 10 day"}, "[7]": {"experiment": "Drug concentration in plasma of monoiodoacetate-induced Sprague-Dawley rat model of osteoarthritis at 10 mg/kg, po administered for 5 days and measured after 15 mins", "format": "ADME, organism-based", "conditions": "time 5 day"}, "physchem [8]": {"experiment": "physchem", "conditions": "phosphate buffer"}, "in vivo [9]": {"experiment": "in vivo", "conditions": "Sprague-Dawley, rat, po"}, "[10]": {"conditions": "rat, in vivo, po"}, "[11]": {"biological_target": "Sodium channel protein type 2 subunit alpha (Homo sapiens, UniProt Q99250)", "sequence (Q99250 whole entry)": "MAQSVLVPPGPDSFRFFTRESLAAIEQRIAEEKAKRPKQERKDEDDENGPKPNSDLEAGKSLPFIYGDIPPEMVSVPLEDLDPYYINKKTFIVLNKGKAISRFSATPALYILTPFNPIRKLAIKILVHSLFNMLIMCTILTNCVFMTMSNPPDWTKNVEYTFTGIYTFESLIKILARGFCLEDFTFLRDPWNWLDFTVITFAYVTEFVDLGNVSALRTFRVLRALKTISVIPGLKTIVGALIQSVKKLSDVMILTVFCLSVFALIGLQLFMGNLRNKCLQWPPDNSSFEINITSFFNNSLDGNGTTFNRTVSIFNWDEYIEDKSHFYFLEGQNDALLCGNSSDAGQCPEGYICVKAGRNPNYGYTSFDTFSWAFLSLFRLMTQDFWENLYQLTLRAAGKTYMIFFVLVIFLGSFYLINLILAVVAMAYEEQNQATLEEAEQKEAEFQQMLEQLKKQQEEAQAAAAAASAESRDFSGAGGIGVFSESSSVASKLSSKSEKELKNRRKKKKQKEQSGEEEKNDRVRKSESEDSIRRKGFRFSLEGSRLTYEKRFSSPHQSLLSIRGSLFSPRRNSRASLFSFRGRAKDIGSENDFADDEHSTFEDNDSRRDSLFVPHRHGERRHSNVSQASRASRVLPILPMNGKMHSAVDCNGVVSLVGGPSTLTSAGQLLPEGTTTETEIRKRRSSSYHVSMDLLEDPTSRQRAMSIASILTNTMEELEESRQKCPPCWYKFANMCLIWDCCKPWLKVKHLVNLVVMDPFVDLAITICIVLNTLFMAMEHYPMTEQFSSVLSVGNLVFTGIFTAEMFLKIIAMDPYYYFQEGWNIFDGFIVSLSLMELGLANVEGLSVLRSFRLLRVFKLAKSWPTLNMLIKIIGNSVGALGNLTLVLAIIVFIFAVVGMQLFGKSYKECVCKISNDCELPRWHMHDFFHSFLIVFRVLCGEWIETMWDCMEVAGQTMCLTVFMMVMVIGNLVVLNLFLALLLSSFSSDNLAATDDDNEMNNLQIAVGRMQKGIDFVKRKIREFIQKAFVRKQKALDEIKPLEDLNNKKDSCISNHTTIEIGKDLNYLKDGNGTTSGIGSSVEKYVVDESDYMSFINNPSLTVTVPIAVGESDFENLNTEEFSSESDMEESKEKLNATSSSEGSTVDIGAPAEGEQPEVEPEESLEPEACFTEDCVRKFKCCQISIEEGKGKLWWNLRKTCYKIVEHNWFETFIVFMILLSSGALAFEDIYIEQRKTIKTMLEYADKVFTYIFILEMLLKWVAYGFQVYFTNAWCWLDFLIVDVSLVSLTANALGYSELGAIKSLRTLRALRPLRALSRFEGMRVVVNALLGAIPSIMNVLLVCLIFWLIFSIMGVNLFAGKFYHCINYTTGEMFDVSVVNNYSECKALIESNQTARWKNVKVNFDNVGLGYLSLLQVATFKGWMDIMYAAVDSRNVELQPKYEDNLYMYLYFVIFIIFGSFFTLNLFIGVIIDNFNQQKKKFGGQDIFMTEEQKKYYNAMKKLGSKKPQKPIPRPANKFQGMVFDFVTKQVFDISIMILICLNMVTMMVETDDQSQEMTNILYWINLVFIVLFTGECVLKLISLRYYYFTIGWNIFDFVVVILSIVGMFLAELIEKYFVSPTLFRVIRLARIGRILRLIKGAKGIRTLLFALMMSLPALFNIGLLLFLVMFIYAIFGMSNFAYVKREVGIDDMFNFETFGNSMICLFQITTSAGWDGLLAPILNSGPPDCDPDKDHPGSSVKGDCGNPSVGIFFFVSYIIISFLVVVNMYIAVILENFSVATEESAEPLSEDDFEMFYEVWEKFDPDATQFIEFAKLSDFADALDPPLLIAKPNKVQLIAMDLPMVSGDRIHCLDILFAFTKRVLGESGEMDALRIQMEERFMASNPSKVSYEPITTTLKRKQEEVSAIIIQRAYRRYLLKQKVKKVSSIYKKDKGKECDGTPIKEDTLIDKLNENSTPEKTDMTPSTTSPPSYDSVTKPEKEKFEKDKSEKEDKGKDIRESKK", "experiment": "Inhibition of recombinant human Nav1.2 expressed in HEK293 cells incubated for 3 mins by FRET based membrane potential assay", "format": "cell-based"}, "in vivo [12]": {"experiment": "in vivo", "conditions": "Sprague-Dawley, rat, po", "remark": "listed apart in the source"}, "in vitro": {"experiment": "in vitro", "conditions": "PAMPA"}, "physchem [13]": {"experiment": "physchem", "conditions": "octanol/water"}, "[14]": {"experiment": "Ratio of free drug concentration in brain to plasma of rat", "format": "ADME, cell-free", "conditions": "brain and plasma"}, "[15]": {"biological_target": "Voltage-gated inwardly rectifying potassium channel KCNH2 (Homo sapiens, UniProt Q12809)", "sequence (Q12809 whole entry)": "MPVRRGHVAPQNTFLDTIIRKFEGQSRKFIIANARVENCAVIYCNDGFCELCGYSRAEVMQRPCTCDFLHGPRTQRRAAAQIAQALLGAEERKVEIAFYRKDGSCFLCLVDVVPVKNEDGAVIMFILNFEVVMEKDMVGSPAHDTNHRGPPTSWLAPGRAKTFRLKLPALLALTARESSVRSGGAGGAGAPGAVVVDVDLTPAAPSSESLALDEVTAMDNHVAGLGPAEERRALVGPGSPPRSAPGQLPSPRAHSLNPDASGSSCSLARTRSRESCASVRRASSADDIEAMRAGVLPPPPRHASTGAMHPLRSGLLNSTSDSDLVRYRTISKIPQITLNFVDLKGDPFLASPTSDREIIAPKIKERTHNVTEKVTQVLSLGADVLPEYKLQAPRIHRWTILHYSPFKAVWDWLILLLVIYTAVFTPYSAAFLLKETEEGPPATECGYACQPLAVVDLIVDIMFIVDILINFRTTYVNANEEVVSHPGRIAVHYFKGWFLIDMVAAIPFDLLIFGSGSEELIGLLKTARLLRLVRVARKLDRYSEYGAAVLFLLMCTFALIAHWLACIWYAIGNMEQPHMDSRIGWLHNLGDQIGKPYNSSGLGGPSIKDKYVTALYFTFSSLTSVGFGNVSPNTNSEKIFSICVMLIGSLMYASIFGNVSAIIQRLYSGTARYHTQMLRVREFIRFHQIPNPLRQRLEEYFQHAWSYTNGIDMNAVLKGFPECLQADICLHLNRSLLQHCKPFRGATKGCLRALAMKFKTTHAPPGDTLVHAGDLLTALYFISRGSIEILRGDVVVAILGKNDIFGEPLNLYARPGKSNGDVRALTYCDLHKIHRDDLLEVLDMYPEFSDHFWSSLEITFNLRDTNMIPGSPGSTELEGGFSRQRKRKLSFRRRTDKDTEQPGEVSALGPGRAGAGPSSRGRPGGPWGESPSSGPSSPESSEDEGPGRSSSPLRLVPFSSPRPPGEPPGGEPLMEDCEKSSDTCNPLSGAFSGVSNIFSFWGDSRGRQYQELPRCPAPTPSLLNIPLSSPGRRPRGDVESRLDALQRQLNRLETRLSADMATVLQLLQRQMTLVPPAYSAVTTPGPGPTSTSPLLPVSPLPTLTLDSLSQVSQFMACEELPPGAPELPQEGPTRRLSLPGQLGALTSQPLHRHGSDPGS"}, "[16]": {"experiment": "Drug concentration in plasma of monoiodoacetate-induced Sprague-Dawley rat model of osteoarthritis at 30 mg/kg, po administered for 5 days and measured after 15 mins", "format": "ADME, organism-based", "conditions": "time 5 day"}, "[17]": {"experiment": "Drug concentration in plasma of monoiodoacetate-induced Sprague-Dawley rat model of osteoarthritis at 3 mg/kg, po administered for 5 days and measured after 15 mins", "format": "ADME, organism-based", "conditions": "time 5 day"}, "Rattus norvegicus [18]": {"tested_on": "Rattus norvegicus", "experiment": "Antinociceptive activity in monoiodoacetate-induced Sprague-Dawley rat model of osteoarthritis at 3 mg/kg, po administered for 5 days and measured after 180 mins by grip force testing relative to control", "format": "functional", "conditions": "time 5 day"}, "Rattus norvegicus [19]": {"tested_on": "Rattus norvegicus", "experiment": "Antinociceptive activity in monoiodoacetate-induced Sprague-Dawley rat model of osteoarthritis at 30 mg/kg, po administered for 5 days and measured after 180 mins by grip force testing relative to control", "format": "functional", "conditions": "time 5 day"}, "Rattus norvegicus [20]": {"tested_on": "Rattus norvegicus", "experiment": "Antinociceptive activity in monoiodoacetate-induced Sprague-Dawley rat model of osteoarthritis at 10 mg/kg, po administered for 5 days and measured after 180 mins by grip force testing relative to control", "format": "functional", "conditions": "time 5 day"}}}
{"smiles": "O=C(c1ccc2cc(Oc3ccc(C(F)F)cn3)ccc2n1)N1CCNCC1", "values": [{"measurement": "concentration at 120 h", "setting": "[1]", "result": 1560, "unit": "ng/mL"}, {"measurement": "concentration at 120 h", "setting": "[2]", "result": 720, "unit": "ng/mL"}, {"measurement": "concentration at 120 h", "setting": "[3]", "result": 200, "unit": "ng/mL"}, {"measurement": "EC50", "setting": "Rattus norvegicus [4]", "result": 0.45, "unit": "µg/mL"}, {"measurement": "Activity", "setting": "[5]", "result": "Non-Toxic"}, {"measurement": "Activity", "setting": "[6]", "result": "Toxic"}, {"measurement": "concentration at 120 h", "setting": "[7]", "result": 4170, "unit": "ng/mL"}, {"measurement": "solubility", "setting": "physchem [8]", "result": 150, "unit": "µM"}, {"measurement": "half-life", "setting": "in vivo [9]", "result": 3.38, "unit": "h"}, {"measurement": "Vdss", "setting": "[10]", "result": 5.42, "unit": "L/kg"}, {"measurement": "IC50", "setting": "[11]", "result": 12.8, "unit": "µM"}, {"measurement": "bioavailability", "setting": "in vivo [12]", "result": 96, "unit": "%"}, {"measurement": "Papp", "setting": "in vitro", "result": 3.3, "unit": "×10⁻⁶ cm/s"}, {"measurement": "logD", "setting": "physchem [13]", "result": 2.4}, {"measurement": "Kp uu", "setting": "[14]", "result": 0.14}, {"measurement": "IC50", "setting": "[15]", "result": 29.5, "unit": "µM"}, {"measurement": "concentration at 120 h", "setting": "[16]", "result": 9110, "unit": "ng/mL"}, {"measurement": "concentration at 120 h", "setting": "[17]", "result": 1000, "unit": "ng/mL"}]}
{"smiles": "CS(=O)(=O)CCNC(=O)c1ccc2cc(Oc3ccc(C(F)(F)F)cn3)ccc2n1", "values": [{"measurement": "solubility", "setting": "physchem [8]", "result": 29, "unit": "µM"}, {"measurement": "Activity", "setting": "Rattus norvegicus [18]", "result": 35, "unit": "%"}, {"measurement": "Activity", "setting": "Rattus norvegicus [19]", "result": 63, "unit": "%"}, {"measurement": "bioavailability", "setting": "in vivo [12]", "result": 80.4, "unit": "%"}, {"measurement": "Papp", "setting": "in vitro", "result": 18, "unit": "×10⁻⁶ cm/s"}, {"measurement": "IC50", "setting": "[15]", "result": 30, "unit": "µM"}, {"measurement": "Activity", "setting": "Rattus norvegicus [20]", "result": 68, "unit": "%"}]}
